Measurements as given in patent US20250032460A1, “METHODS OF TREATING NEUROLOGICAL DISORDERS” (MapLight Therapeutics, Inc., priority 2021, published 2025).
Values joined by “and” are separate entries in the source; they are usually repeats but may differ in a detail not shown here. Equal entries are not always repeated.

Experiments:
[1] = Plasma concentrations during 7-day oral dosing in beagle dogs; assay type: in vivo; settings: Group 3: Compound 1 1.5 mg/kg/day PO + fesoterodine fumarate 3 mg/kg/day PO
[2] = Plasma pharmacokinetics after single-dose intravenous administration in rats; assay type: in vivo, Sprague Dawley rats; settings: for AUClast of desfesoterodine / C0 of desfesoterodine: IV
Protocol: The plasma concentration-time profile was evaluated for fesoterodine active metabolite desfesoterodine and Compound 1 in male Sprague Dawley rats following single-dose intravenous administration of fesoterodine (0.25 mg/kg) and Compound 1 (0.5 mg/kg and 1.5 mg/kg) alone and single-dose co-administration. Plasma exposures of desfesoterodine were similar following administration of fesoterodine alone and in combination with Compound 1.

[3] = Post-procedure plasma exposure (salivation study); assay type: in vivo, Sprague Dawley rats
Protocol: An in vivo primary pharmacology study evaluating the fesoterodine fumarate dose-response antagonistic effect on Compound 1 induced salivation in anaesthetized male Sprague Dawley rats was conducted. […] Intravenous fesoterodine doses were administered at […]. Fesoterodine was dosed 10 minutes prior to dosage of Compound 1. All animals were normal with no observed abnormality detected in clinical signs or behavior. Salivation was measured by using oral dry swab in anesthetized rats with the calculated difference between the dry swab weight and the wet swab weight indicating the weight of saliva produced. Samples were collected post-dosing for one hour at 10-minute intervals.
At the end of the study period, plasma samples were collected to measure exposure of Compound 1, fesoterodine fumarate, and fesoterodine active metabolite 5-hydroxymethyl tolterodine (5-HMT), also referred to as desfesoterodine, is summarized in Table 2.

[4] = Fesoterodine: 0.25 + Compound 1: 0.5 mg/kg
[5] = Fesoterodine: 0.25 + Compound 1: 1.5 mg/kg

**Q.** Which “Plasma concentration of desfesoterodine, Mean” value ([1]; Day 1, 2.00 h) does the source give for `CC(C)N(CCC(c1ccccc1)c1cc(CO)ccc1O)C(C)C` (stereo not shown) [desfesoterodine, 5-hydroxymethyl tolterodine] here?
**A.** 0.036 µg/mL

**Q.** What about the “Plasma concentration of desfesoterodine, individual animals D3001-D3005” value ([1]; Day 1, 2.00 h) of the same molecule?
**A.** 32.4 ng/mL and 17.2 ng/mL and 74.2 ng/mL and 10.7 ng/mL and 45.5 ng/mL

**Q.** What about the “Plasma concentration of desfesoterodine, Mean” value ([1]; Day 1, 4.00 h) of the same molecule?
**A.** 0.00929 µg/mL

**Q.** And the “Plasma concentration of desfesoterodine, individual animals D3001-D3005” value ([1]; Day 1, 4.00 h)?
**A.** 7.08 ng/mL and 3.69 ng/mL and 17.0 ng/mL and 5.38 ng/mL and 13.3 ng/mL

**Q.** What about the “Plasma concentration of desfesoterodine, Mean” value ([1]; Day 1, 8.00 h) of the same molecule?
**A.** 0.00278 µg/mL

**Q.** And the “Plasma concentration of desfesoterodine, individual animals D3001-D3005” value ([1]; Day 1, 8.00 h)?
**A.** 1.41 ng/ml and 4.22 ng/ml and 3.82 ng/ml and BQL and 1.67 ng/ml

**Q.** What about the “Plasma concentration of desfesoterodine, individual animals D3001-D3005” value ([1]; Day 1, 24.0 h) of the same molecule?
**A.** BQL

**Q.** And the “Plasma concentration of desfesoterodine, individual animals D3001-D3005” value ([1]; Day 7, 0.00 h)?
**A.** BQL

**Q.** What about the “Plasma concentration of desfesoterodine, Mean” value ([1]; Day 7, 0.250 h) of the same molecule?
**A.** 0.183 µg/mL

**Q.** What about the “Plasma concentration of desfesoterodine, individual animals D3001-D3005” value ([1]; Day 7, 0.250 h) of the same molecule?
**A.** 29.1 ng/mL and 60.6 ng/mL and 407 ng/mL and 149 ng/mL and 270 ng/mL

**Q.** What about the “Plasma concentration of desfesoterodine, Mean” value ([1]; Day 7, 0.500 h) of the same molecule?
**A.** 0.201 µg/mL

**Q.** And the “Plasma concentration of desfesoterodine, individual animals D3001-D3005” value ([1]; Day 7, 0.500 h)?
**A.** 103 ng/mL and 77.7 ng/mL and 318 ng/mL and 197 ng/mL and 311 ng/mL

**Q.** What about the “Plasma concentration of desfesoterodine, Mean” value ([1]; Day 7, 0.750 h) of the same molecule?
**A.** 0.148 µg/mL

**Q.** And the “Plasma concentration of desfesoterodine, individual animals D3001-D3005” value ([1]; Day 7, 0.750 h)?
**A.** 84.3 ng/mL and 66.4 ng/mL and 294 ng/mL and 102 ng/mL and 191 ng/mL

**Q.** And the “Plasma concentration of desfesoterodine, Mean” value ([1]; Day 7, 1.00 h)?
**A.** 0.128 µg/mL

**Q.** And the “Plasma concentration of desfesoterodine, individual animals D3001-D3005” value ([1]; Day 7, 1.00 h)?
**A.** 73.5 ng/mL and 64.7 ng/mL and 224 ng/mL and 105 ng/mL and 175 ng/mL

**Q.** And the “Plasma concentration of desfesoterodine, Mean” value ([1]; Day 7, 2.00 h)?
**A.** 0.0805 µg/mL

**Q.** What about the “Plasma concentration of desfesoterodine, individual animals D3001-D3005” value ([1]; Day 7, 2.00 h) of the same molecule?
**A.** 45.8 ng/mL and 42.6 ng/mL and 149 ng/mL and 63.2 ng/mL and 102 ng/mL

**Q.** What about the “Plasma concentration of desfesoterodine, Mean” value ([1]; Day 7, 4.00 h) of the same molecule?
**A.** 0.0402 µg/mL

**Q.** And the “Plasma concentration of desfesoterodine, individual animals D3001-D3005” value ([1]; Day 7, 4.00 h)?
**A.** 52.2 ng/mL and 15.2 ng/mL and 61.6 ng/mL and 31.6 ng/mL and 40.5 ng/mL

**Q.** And the “Plasma concentration of desfesoterodine, Mean” value ([1]; Day 7, 8.00 h)?
**A.** 0.00593 µg/mL

**Q.** What about the “Plasma concentration of desfesoterodine, individual animals D3001-D3005” value ([1]; Day 7, 8.00 h) of the same molecule?
**A.** 10.6 ng/mL and 3.92 ng/mL and 8.16 ng/mL and 2.93 ng/mL and 4.06 ng/mL

**Q.** What about the “Plasma concentration of desfesoterodine, individual animals D3001-D3005” value ([1]; Day 7, 24.0 h) of the same molecule?
**A.** BQL

**Q.** What about the AUClast of desfesoterodine ([2]; Fesoterodine: 0.25 mg/kg alone) of the same molecule?
**A.** 0.01541 µg·h/mL

**Q.** And the C0 of desfesoterodine ([2]; Fesoterodine: 0.25 mg/kg alone)?
**A.** 0.02709 µg/mL

**Q.** What about the AUClast of desfesoterodine [2, 4] of the same molecule?
**A.** 0.01305 µg·h/mL

**Q.** What about the C0 of desfesoterodine [2, 4] of the same molecule?
**A.** 0.03463 µg/mL

**Q.** And the AUClast of desfesoterodine [2, 5]?
**A.** 0.01373 µg·h/mL

**Q.** What about the C0 of desfesoterodine [2, 5] of the same molecule?
**A.** 0.03871 µg/mL

**Q.** And the “plasma exposures of desfesoterodine, fesoterodine alone vs in combination with Compound 1” value ([2]; fesoterodine 0.25 mg/kg IV, rats)?
**A.** similar

**Q.** What about the “Plasma Concentration 1-Hour Post-procedure (mean value), Desfesoterodine (5-HMT)” value ([3]; Fesoterodine 0.0078 mg/mL + Compound 1 (1.5 mg/kg)) of the same molecule?
**A.** BLQ

**Q.** And the “Plasma Concentration 1-Hour Post-procedure (mean value), Desfesoterodine (5-HMT)” value ([3]; Fesoterodine 0.0156 mg/mL + Compound 1 (1.5 mg/kg))?
**A.** BLQ

**Q.** And the “Plasma Concentration 1-Hour Post-procedure (mean value), Desfesoterodine (5-HMT)” value ([3]; Fesoterodine 0.0312 mg/mL + Compound 1 (1.5 mg/kg))?
**A.** BLQ

**Q.** What about the “Plasma Concentration 1-Hour Post-procedure (mean value), Desfesoterodine (5-HMT)” value ([3]; Fesoterodine 0.0625 mg/mL + Compound 1 (1.5 mg/kg)) of the same molecule?
**A.** BLQ

**Q.** And the “Plasma Concentration 1-Hour Post-procedure (mean value), Desfesoterodine (5-HMT)” value ([3]; Fesoterodine 0.125 mg/mL + Compound 1 (1.5 mg/kg))?
**A.** BLQ

**Q.** And the “Plasma Concentration 1-Hour Post-procedure (mean value), Desfesoterodine (5-HMT)” value ([3]; Fesoterodine 0.25mg/mL + Compound 1 (1.5 mg/kg))?
**A.** 0.00515 µg/mL

**Q.** What about the “Plasma Concentration 1-Hour Post-procedure (mean value), Desfesoterodine (5-HMT)” value ([3]; Fesoterodine 0.5 mg/mL + Compound 1 (1.5 mg/kg)) of the same molecule?
**A.** 0.00619 µg/mL
